Data from publication PMC4919643, “Intestinally-targeted TGR5 agonists equipped with quaternary ammonium have an improved hypoglycemic effect and reduced gallbladder filling effect” (Scientific Reports, 2016).

Key:
ob/ob mice [1] = assay: Acute efficacy (blood glucose) in ob/ob mice; format: in vivo, mouse; conditions: 100 mg/kg p.o. single dose
Method: Mice were refed at 6 h after dosing. *p < 0.05, **p < 0.01 vs. control. Error bar indicates SEM.
Acute efficacy in ob/ob mice. 7-week-old ob/ob mice (male) were divided into three groups (n = 8) based on 2 h-fasted blood glucose. […]
mg/kg) and 0.25% CMC (control) was then orally administered to 2 h-fasted mice, and blood glucose was measured at 2, 4, 6, 8, 10, and 24 h after dosing. The animals were refed at 6 h after dosing.
GLP-1 secretion in ob/ob mice. The ob/ob mice (female) were divided into 4 groups and […]
then divided into 3 subgroup of different time point (n = 8-9 each subgroup). All the animals were fasted for 6 hours before collecting blood samples at the indicated time points. At other times, animals were free accessed to water and food. […] Concentrations of active GLP-1[7-36 amide] in the serum were measured using ELISA kit from Linco Research. […]
administered to 12 h-fasted ob/ob mice (n = 3 per time point). […] After centrifugation at 11000 rpm for 5 mins, the supernatant was analyzed by LC-MS/MS. […]
administered orally to overnight-fasted ob/ob mice (male, n = 3-6). 1 h after dosing, mice were refed for 3 hours, and then gallbladders were removed, and the area was measured using vernier caliper. The relative gallbladder area was calculated from the length multiplied by the width of the gallbladder. The bile weight was measured using […]

[2] = target: T1, farnesyl X receptor (FXR) (Homo sapiens, UniProt Q96RI1); assay: FXR assay (LanthaScreen TR-FRET coactivator assay)
T1 sequence (Q96RI1 262-486 limits assumed): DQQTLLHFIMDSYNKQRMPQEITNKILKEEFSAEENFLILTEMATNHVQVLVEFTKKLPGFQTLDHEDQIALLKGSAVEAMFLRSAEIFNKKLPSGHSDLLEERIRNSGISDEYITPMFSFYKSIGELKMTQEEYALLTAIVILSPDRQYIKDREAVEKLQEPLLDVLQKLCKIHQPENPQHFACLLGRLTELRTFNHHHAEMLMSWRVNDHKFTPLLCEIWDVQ

ICR mice = assay: Oral glucose tolerance test (OGTT) in ICR mice; format: in vivo, mouse
Method: Blood glucose levels were measured berefore and after glucose loading. *p < 0.05, **p < 0.01 vs. control. Error bar indicateds SEM (standard error of the mean). […]
Oral glucose tolerance test (OGTT) and gallbladder filling assay in ICR mice. 100 […]
mice (n = 7-8) 90 min prior to the oral glucose load (4 g/kg). Blood glucose levels were measured via blood drops obtained by clipping the tail of the mice using an Accu-Chek Advantage II Glucose Monitor (Roche, Indianapolis, IN, USA) before compound dosing and 0, 15, 30, 60, and 120 min after the glucose load. The area under the concentration−time curve from 0 to 120 min (AUC0−120 min, Glu) of blood glucose after the glucose load was calculated by the trapezoidal rule. […]

ob/ob mice [3] = assay: Long-term (18-day) study in ob/ob mice; format: in vivo, mouse; conditions: for decrease of HbA1c level on day 18: 18 days; for HbA1c, signed change vs control (Fig. 9C): day 18
[4] = Caco-2 permeability determination; format: in vitro ADME; conditions: human
Method: Caco-2 permeability determination. Caco-2 permeability determination was carried out […]
Caco-2 cells were obtained from the ATCC (Cat#HTB-37) and maintained in Dulbecco’s modified Eagle’s Medium containing 10% fetal bovine serum, 1% glutamine, 1% nonessential amino acids, 100 μg/mL streptomycin, and 100 U/mL penicillin.
CO2 and 90% relative humidity environment. Caco-2 cells were passaged every 7 days at a ratio of 1:10. Cells were used between passages 30 and 40. After 21 days of culture, the integrity of the cell monolayer was verified by measuring the transepithelial electrical […]
Drug transport from the apical side to the basolateral side (A-B) and from the basolateral side to the apical side was measured simultaneously under the same condition.
Propranolol and atenolol were used as the […] control, respectively.
Digoxin was used as the positive control for Pgp-mediated drug efflux. In brief, the method was as follows. After washing the monolayer with HBSS three times, the compounds were diluted and added to the appropriate well (pH 6.8 for apical side and pH […]
7.4 for basolateral side). […] Samples were […]
collected from the donor side at 5 and 95 min, and from the receiver side at 35 and 95 min post-incubation. The concentration of samples was measured by LC-MS/MS. The Papp was calculated from the following equation:
Papp = (VA/(SA×T))×([drug]acceptor/ [durg]initial donor )
Where VA is the volume of the acceptor well, SA is the surface area of the membrane, T is the total transport time, [drug]acceptor is the drug level at the acceptor side, and [drug]initial donor is the drug level at the donor side at T = 0. […]

[5] = 100 mg/kg p.o., after 18-day treatment
[6] = 18-day treatment, 50 or 100 mg/kg p.o., dose-dependent
[7] = 18-day treatment, data not shown

## CN(CC[N+](C)(C)C)C(=O)CCc1cc(Cl)c(Oc2ccsc2C(=O)N2CCN(C3CC3)c3ccccc32)cc1Cl [Compound 26a]
ob/ob mice [1]
  time post-dosing until which glucose-lowering effect was maintained: at least 24 h
[2]
  concentration up to which activation of FXR was not observed: > 100 µM
ICR mice; 100 mg/kg p.o.
  AUC0–120 min of blood glucose, signed change vs control (OGTT, Fig. 3B): -18%
ICR mice; 100 mg/kg p.o. 1.5 h before glucose 4 g/kg
  decrease of blood glucose AUC vs control (OGTT): 18%
ob/ob mice [3]; 50 mg/kg p.o., not significant
  decrease of HbA1c level on day 18: 0.48%
ob/ob mice [3]; 50 mg/kg p.o., after 18-day treatment
  triglyceride, signed change vs control (Fig. 9D): -7.2%
ob/ob mice [3]; 50 mg/kg p.o.
  HbA1c, signed change vs control (Fig. 9C): -0.48%
ob/ob mice [3]; 100 mg/kg p.o., significant
  decrease of HbA1c level on day 18: 0.94%
ob/ob mice [3]; [5]
  decrease of triglyceride level: 22%
  triglyceride, signed change vs control (Fig. 9D): -22%
ob/ob mice [3]; 100 mg/kg p.o.
  HbA1c, signed change vs control (Fig. 9C): -0.94%
ob/ob mice [3]; 18-day treatment
  body weight of mice: not affected
ob/ob mice [3]; 18-day treatment, 50 or 100 mg/kg p.o.
  significant change in levels of total cholesterol: not observed
ob/ob mice [3]; [6]
  fasting blood glucose: decreased dramatically
  non-fasting blood glucose: decreased dramatically
ob/ob mice [3]; [7]
  level of alanine aminotransferase: No significant changes
  level of alkaline phosphatase: No significant changes
  level of aspartate aminotransferase: No significant changes
  level of total bilirubin: No significant changes
[4]; Caco-2, apical to basolateral side
  Papp A→B at 95 min: 0.6 nm/s
[4]; Caco-2, basolateral to apical side
  Papp B→A at 95 min: 8 nm/s
